Source: ChEMBL document CHEMBL1156376, “Clathsterol, a novel anti-HIV-1 RT sulfated sterol from the sponge Clathria species” (J Nat Prod, 2001)
Activity calls are given as the source filed them. The calls are words filed in the database; no cut-off is given here.

Molecular target: Human immunodeficiency virus type 1 reverse transcriptase (Human immunodeficiency virus 1) (UniProt Q72547)
Experiment: Inhibition of HIV1 reverse transcriptase at 10 uM

`CCCC(=O)OC(C(CC)C(C)C)C(OC(=O)CCC)[C@@H](C)[C@H]1[C@@H](O)[C@H](OC(C)=O)[C@H]2[C@@H]3CCC4C[C@H](OS(=O)(=O)O)[C@@H](OS(=O)(=O)O)C[C@]4(C)[C@H]3CC[C@@]21C` (stereo partly specified) was tested, and the Activity was “Active”.
